Tests used:
[1] = tested on: wildtype Wnt signaling cascade; assay: HEK293 TOP Assay (Super TopFlash luciferase reporter, Wnt-3a stimulated); assay type: cell-based; conditions: Homo sapiens, HEK293, 16 h
Method in brief: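 HEK293 cells stably carrying Super TopFlash (TOP) or FOP reporter, stimulated with recombinant human Wnt-3a (2500–5 ng/ml, two-fold steps). Both lines incubated in parallel with compound from 50 μM to 15 nM (3.16-fold) in CAFTY buffer pH 7.4 with 2 mM Ca2+ and 0.01% BSA; selectivity judged TOP vs FOP.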

TNKS2 = target: T1, TNKS2 (Homo sapiens, UniProt Q9H2K2); assay: Modified TNKS2 Assay 3 (BPS kit #80578, biotin-NAD+, 96 well); assay type: biochemical; conditions: human TNKS2, BPS kit #80578, 96 well
T1 sequence (Q9H2K2 1-1166): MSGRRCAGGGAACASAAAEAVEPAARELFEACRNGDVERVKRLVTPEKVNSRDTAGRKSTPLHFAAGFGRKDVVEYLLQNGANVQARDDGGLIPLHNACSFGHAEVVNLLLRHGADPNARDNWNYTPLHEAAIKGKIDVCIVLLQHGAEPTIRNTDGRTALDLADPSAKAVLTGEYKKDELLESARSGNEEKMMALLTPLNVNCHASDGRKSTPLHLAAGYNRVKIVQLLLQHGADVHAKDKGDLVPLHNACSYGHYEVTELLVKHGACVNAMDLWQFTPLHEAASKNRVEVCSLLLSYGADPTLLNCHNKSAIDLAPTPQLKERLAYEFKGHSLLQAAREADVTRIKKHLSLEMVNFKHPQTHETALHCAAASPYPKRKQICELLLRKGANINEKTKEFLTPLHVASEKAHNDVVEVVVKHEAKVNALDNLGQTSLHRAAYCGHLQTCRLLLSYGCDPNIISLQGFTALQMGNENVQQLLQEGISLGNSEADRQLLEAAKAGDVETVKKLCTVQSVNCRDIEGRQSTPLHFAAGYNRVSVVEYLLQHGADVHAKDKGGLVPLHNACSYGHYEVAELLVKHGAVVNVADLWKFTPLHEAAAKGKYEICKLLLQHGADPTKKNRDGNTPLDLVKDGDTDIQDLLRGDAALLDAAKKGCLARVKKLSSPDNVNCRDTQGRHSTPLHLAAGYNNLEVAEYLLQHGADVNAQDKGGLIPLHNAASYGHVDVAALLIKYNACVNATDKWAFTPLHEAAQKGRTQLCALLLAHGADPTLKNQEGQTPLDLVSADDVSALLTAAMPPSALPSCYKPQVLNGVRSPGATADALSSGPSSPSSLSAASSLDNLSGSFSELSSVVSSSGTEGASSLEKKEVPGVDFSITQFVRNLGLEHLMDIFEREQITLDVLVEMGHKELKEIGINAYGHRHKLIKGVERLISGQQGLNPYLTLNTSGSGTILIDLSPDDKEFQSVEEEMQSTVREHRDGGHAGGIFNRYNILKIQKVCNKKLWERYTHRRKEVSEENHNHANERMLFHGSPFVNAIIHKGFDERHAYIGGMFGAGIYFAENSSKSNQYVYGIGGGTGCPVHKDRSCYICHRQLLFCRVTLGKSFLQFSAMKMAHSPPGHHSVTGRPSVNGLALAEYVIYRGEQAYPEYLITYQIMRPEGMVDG
Method in brief: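 Commercial kit assay measuring TNKS2-catalysed incorporation of biotin-labelled NAD+ into a protein substrate, detected by streptavidin-HRP chemiluminescence. Run per manufacturer's protocol; IC50 is the concentration halving the normalised signal.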

[2] = HEK293 TOP reporter cell line, Wnt-3a at EC50, 16 hours incubation, compound dilution series 50 μM to 15 nM

| SMILES | IC50 [1, 2] [nM] | IC50 (TNKS2) [nM] | IC50 ([1]; HEK293 TOP reporter cells, Wnt3a at EC50, 16 hours, luciferase) [nM] |
| --- | --- | --- | --- |
| O=C(Nc1ccc(NC(=O)c2ocnc2C(=O)NCCN2CC[C@H](F)C2)cc1)c1ccc(F)cc1Cl [Example 221, N^5-{4-[(2-chloro-4-fluorobenzoyl)amino]phenyl}-N^4-{2-[(3S)-3-fluoropyrrolidin-1-yl]ethyl}-1,3-oxazole-4,5-dicarboxamide] | 820 | 490 | – |
| CNC(=O)c1nc[nH]c1C(=O)Nc1ccc(NC(=O)c2c(C)cc(C)cc2C)cc1 [Example 35, N^5-{4-[(mesitylcarbonyl)amino]phenyl}-N^4-methyl-1H-imidazole-4,5-dicarboxamide] | 760 | > 500 | 760 |
| CN1CCC(CNC(=O)c2nc[nH]c2C(=O)Nc2ccc(NC(=O)c3ccc(F)cc3Cl)cc2)C1 (stereo not drawn) [Example 407, N^5-{4-[(2-chloro-4-fluorobenzoyl)amino]phenyl}-N^4-[(1-methylpyrrolidin-3-yl)methyl]-1H-imidazole-4,5-dicarboxamide] | 230 | 8 | – |
| O=C(Nc1ccc(NC(=O)c2nc[nH]c2C(=O)NCCN2CC[C@H](F)C2)cc1)c1ccc(F)cc1Cl [Example 232, N^4-{4-[(2-chloro-4-fluorobenzoyl)amino]phenyl}-N^5-{2-[(3S)-3-fluoropyrrolidin-1-yl]ethyl}-1H-imidazole-4,5-dicarboxamide] | 220 | 40 | – |
| O=C(Nc1ccc(NC(=O)c2[nH]cnc2C(=O)NCCC2CC2)cc1)c1cc(F)c(F)cc1Cl [Example 49, N^5-{4-[(2-chloro-4,5-difluorobenzoyl)amino]phenyl}-N^4-(2-cyclopropylethyl)-1H-imidazole-4,5-dicarboxamide] | 350 | > 500 | – |
| O=C(Nc1ccc(NC(=O)c2nc[nH]c2C(=O)NCCN2CCOCC2)cc1)c1ccc(F)cc1Cl [Example 227, N^4-{4-[(2-chloro-4-fluorobenzoyl)amino]phenyl}-N^5-[2-(morpholin-4-yl)ethyl]-1H-imidazole-4,5-dicarboxamide] | 120 | 20 | – |
| O=C(Nc1ccc(NC(=O)c2nc[nH]c2C(=O)N2CC3(COC3)C2)cc1)c1ccc(F)cc1Cl [Example 145, N-{4-[(2-chloro-4-fluorobenzoyl)amino]phenyl}-5-(2-oxa-6-azaspiro[3.3]hept-6-ylcarbonyl)-1H-imidazole-4-carboxamide] | 290 | > 500 | – |

More lines, in order of falling IC50 [1, 2], values ahead:

| IC50 [1, 2] [nM] | IC50 (TNKS2) [nM] | IC50 ([1]; HEK293 TOP reporter cells, Wnt3a at EC50, 16 hours, luciferase) [nM] | SMILES |
| --- | --- | --- | --- |
| 340 | > 500 | – | O=C(Nc1ccc(NC(=O)c2[nH]cnc2C(=O)N2CC(F)C2)cc1)c1cc(F)c(F)cc1Cl [Example 47, N-{4-[(2-chloro-4,5-difluorobenzoyl)amino]phenyl}-4-[(3-fluoroazetidin-1-yl)carbonyl]-1H-imidazole-5-carboxamide] |
| 270 | 60 | – | CNC(=O)c1nc[nH]c1C(=O)Nc1ccc(NC(=O)c2ccc(F)cc2Cl)c(OC)c1 [Example 95, N^5-{4-[(2-chloro-4-fluorobenzoyl)amino]-3-methoxyphenyl}-N^4-methyl-1H-imidazole-4,5-dicarboxamide] |
| 260 | > 500 | – | O=C(Nc1ccc(NC(=O)c2nc[nH]c2C(=O)NCC2CC2)cc1)c1ccc(F)cc1Cl [Example 128, N^4-{4-[(2-chloro-4-fluorobenzoyl)amino]phenyl}-N^5-(cyclopropylmethyl)-1H-imidazole-4,5-dicarboxamide] |
